Laboratory results published in US20080033017A1, “COMPOSITIONS FOR ENHANCED ACARICIDAL ACTIVITY” (priority 2000, published 2008).
Several values for one entry are separate records, joined by “and”; a condition that tells them apart may be missing. Identical values can stand only once.

Columns and labels:
D. VARIABILIS = assay: Comparative tick control on dogs, D. variabilis, percent control; assay type: in vivo, Dermacentor variabilis; set-up: concentration or dose not given beside the values
Text: (§1) The purpose of this study was to was to determine comparative flea and tick control over a 30 day interval of a combination application of a pyrethroid and a chloronicotinyl insecticide applied dermally to dogs. This combination was compared with permethrin alone, imidacloprid alone, fipronil and selamectin. The latter two compounds are present in products that currently carry claims for both tick and flea control
(§2) Thirty-six dogs were divided into six groups of 6 dogs per group. Each dog received a single topically-applied treatment of the either “Kiltix”, a product available from Bayer Corporation containing 45% w/w permethrin, Advantage®, a product available from Bayer Corporation containing 9.1% w/w imidacloprid, a combination of Kiltix and Advantage containing 45% w/w permethrin+9.1% w/w imidacloprid, Top Spot), a product available from Merial containing 9.7% fipronil or Revolution®, a product available from Pfizer Inc. containing 12% w/v selamectin in accordance with the appropriate dose and label instructions for the various product applications. Control dogs remained untreated. All products were provided in the commercial unit dose applicator tubes.
(§3) The dogs were bathed with a mild non-medicated shampoo and thoroughly combed to remove any existing fleas or ticks 7 to 14 days prior to treatment. The dogs were infested with 100 unfed adult ticks (50 Dermacentor variabilis and 50 Rhipiciphalus sanguineus) and 100 unfed adult fleas on Day −3. Live fleas and ticks were counted on Day −1. The dogs were ranked according to total pretreatment live tick counts from highest to lowest. The 36 dogs with the highest counts were selected for the study. Each consecutive group of 6 dogs comprised one block. Treatment was randomly assigned within each block of dogs.
(§4) Each dog was examined visually for fleas and ticks on Days 1, 7, 14, 21, and 28 following treatment. The hair was parted with the thumbs and fingers to count fleas and ticks. Live tick counts were recorded by species. Live ticks only were counted visually on Days 2, 8, 15, 22, and 29. The dogs were combed on Days 3, 9, 16, 23, and 30. All remaining live fleas and ticks were counted and removed.

R. SANGUINEUS = assay: Comparative tick control on dogs, R. sanguineus, percent control; assay type: in vivo, Rhipicephalus sanguineus; set-up: Percent control R. sanguineus: concentration or dose not given beside the values
Text: as §1, §2, §3, §4

[1] = system: both species of ticks (D. variabilis and R. sanguineus); assay: Tick control on dogs, both species together; assay type: in vivo, Dermacentor variabilis and Rhipicephalus sanguineus
Text: as §1
Thirty-six dogs were divided into six groups of 6 dogs per group. […]
The dogs were bathed with a mild non-medicated shampoo and thoroughly combed to remove any existing fleas or ticks 7 to 14 days prior to treatment. […] Live fleas and ticks were counted on Day −1. […]
Each dog was examined visually for fleas and ticks on Days 1, 7, 14, 21, and 28 following treatment. […] Live tick counts were recorded by species. Live ticks only were counted visually on Days 2, 8, 15, 22, and 29. […] All remaining live fleas and ticks were counted and removed.

FLEAS (Siphoneptera) = assay: Comparative flea control on dogs, percent control; assay type: in vivo; set-up: Percent control fleas: concentration or dose not given beside the values
Text: as §1, §2, §3, §4

[2] = Study Day 1, single topical treatment
[3] = Study Day 2, single topical treatment
[4] = Study Day 3, single topical treatment
[5] = Study Day 7, single topical treatment
[6] = Study Day 8, single topical treatment
[7] = Study Day 9, single topical treatment
[8] = Study Day 14, single topical treatment
[9] = Study Day 15, single topical treatment
[10] = Study Day 16, single topical treatment
[11] = Study Day 21, single topical treatment
[12] = Study Day 22, single topical treatment
[13] = Study Day 23, single topical treatment
[14] = Study Day 28, single topical treatment
[15] = Day 1, single topical treatment
[16] = Day 3, single topical treatment
[17] = Day 7, single topical treatment
[18] = Day 9, single topical treatment
[19] = Day 14, single topical treatment
[20] = Day 16, single topical treatment
[21] = Day 21, single topical treatment
[22] = Day 23, single topical treatment
[23] = Day 28, single topical treatment
[24] = Day 30, single topical treatment

Compound | Percent control D. variabilis (D. VARIABILIS; [2]) | Percent control D. variabilis (D. VARIABILIS; [3]) | Percent control D. variabilis (D. VARIABILIS; [4]) | Percent control D. variabilis (D. VARIABILIS; [5]) | Percent control D. variabilis (D. VARIABILIS; [6]) | Percent control D. variabilis (D. VARIABILIS; [7]) | Percent control D. variabilis (D. VARIABILIS; [8]) | Percent control D. variabilis (D. VARIABILIS; [9]) | Percent control D. variabilis (D. VARIABILIS; [10]) | Percent control D. variabilis (D. VARIABILIS; [11]) | Percent control D. variabilis (D. VARIABILIS; [12]) | Percent control D. variabilis (D. VARIABILIS; [13]) | Percent control D. variabilis (D. VARIABILIS; [14]) | Percent control R. sanguineus (R. SANGUINEUS; [2]) | Percent control R. sanguineus (R. SANGUINEUS; [3]) | Percent control R. sanguineus (R. SANGUINEUS; [4]) | Percent control R. sanguineus (R. SANGUINEUS; [5]) | Percent control R. sanguineus (R. SANGUINEUS; [6]) | Percent control R. sanguineus (R. SANGUINEUS; [7]) | Percent control R. sanguineus (R. SANGUINEUS; [8]) | other results
N#Cc1nn(-c2c(Cl)cc(C(F)(F)F)cc2Cl)c(N)c1[S+]([O-])C(F)(F)F (stereo not drawn) [Fipronil, fipronil] | *92.9% | *100% | 100% | 100% | 100% | 100% | 98.7% | 100% | 100% | 92.7% | 98.7% | 100% | 69.7% | 96.3% | 100% | 100% | 100% | 100% | 100% | 99.4% | Percent control R. sanguineus (R. SANGUINEUS; [9]): 100%; Percent control R. sanguineus (R. SANGUINEUS; [10]): 99.4%; Percent control R. sanguineus (R. SANGUINEUS; [11]): 86.0%; Percent control R. sanguineus (R. SANGUINEUS; [12]): 100%; Percent control R. sanguineus (R. SANGUINEUS; [13]): 100%; Percent control R. sanguineus (R. SANGUINEUS; [14]): 65.3%; onset of tick kill (in words) ([1]; both tick species): early kill, similar to that of the combination of permethrin and imidacloprid; flea kill compared with imidacloprid or the combination (in words) (FLEAS (Siphoneptera)): rate of flea kill equal to that of imidacloprid or the combination of imidacloprid and permethrin; Percent control fleas (FLEAS (Siphoneptera); [15]): 100%; Percent control fleas (FLEAS (Siphoneptera); [16]): 100%; Percent control fleas (FLEAS (Siphoneptera); [17]): 100%; Percent control fleas (FLEAS (Siphoneptera); [18]): 100%; Percent control fleas (FLEAS (Siphoneptera); [19]): 100%; Percent control fleas (FLEAS (Siphoneptera); [20]): 100%; Percent control fleas (FLEAS (Siphoneptera); [21]): 100%; Percent control fleas (FLEAS (Siphoneptera); [22]): 100%; Percent control fleas (FLEAS (Siphoneptera); [23]): 100%; Percent control fleas (FLEAS (Siphoneptera); [24]): 100%; Percent control fleas (FLEAS (Siphoneptera); Day −1 (pretreatment count)): 22.4%
O=[N+]([O-])N=C1NCCN1Cc1ccc(Cl)nc1 [Imidacloprid, 1-[(6-chloro-3-pyridinyl)methyl]-N-nitro-2-imidazolidinimine] | −12.0% | 16.9% | 30.9% | 32.5% | 35.3% | 39.4% | 50.3% | 66.4% | 68.4% | 50.2% | 40.1% | 50.2% | 38.8% | 15.5% | 42.4% | 35.9% | 67.2% | 72.0% | 66.6% | 53.5% | Percent control R. sanguineus (R. SANGUINEUS; [9]): 58.2%; Percent control R. sanguineus (R. SANGUINEUS; [10]): 54.0%; Percent control R. sanguineus (R. SANGUINEUS; [11]): 41.5%; Percent control R. sanguineus (R. SANGUINEUS; [12]): 18.9%; Percent control R. sanguineus (R. SANGUINEUS; [13]): −5.3%; Percent control R. sanguineus (R. SANGUINEUS; [14]): 39.1%; Percent control fleas (FLEAS (Siphoneptera); [15]): 100%; Percent control fleas (FLEAS (Siphoneptera); [16]): 100%; Percent control fleas (FLEAS (Siphoneptera); [17]): 100%; Percent control fleas (FLEAS (Siphoneptera); [18]): 100%; Percent control fleas (FLEAS (Siphoneptera); [19]): 100%; Percent control fleas (FLEAS (Siphoneptera); [20]): 100%; Percent control fleas (FLEAS (Siphoneptera); [21]): 100%; Percent control fleas (FLEAS (Siphoneptera); [22]): 99.6%; Percent control fleas (FLEAS (Siphoneptera); [23]): 98.6%; Percent control fleas (FLEAS (Siphoneptera); [24]): 99.4%; Percent control fleas (FLEAS (Siphoneptera); Day −1 (pretreatment count)): 5.4%; killing of fleas (in words) (FLEAS (Siphoneptera); from day 1 through day 30): killed essentially all of the fleas
CC1(C)C(C=C(Cl)Cl)C1C(=O)OCc1cccc(Oc2ccccc2)c1 (stereo not drawn) [Permethrin] | 36.2% | 53.9% | 75.3% | 95.2% | 96.1% | 97.1% | 91.5% | 92.9% | 96.8% | 90.8% | 85.1% | 89.3% | 79.3% | 72.7% | 75.0% | 85.0% | 99.4% | 100% | 99.0% | 95.2% | Percent control R. sanguineus (R. SANGUINEUS; [9]): 98.9%; Percent control R. sanguineus (R. SANGUINEUS; [10]): 99.4%; Percent control R. sanguineus (R. SANGUINEUS; [11]): 89.4%; Percent control R. sanguineus (R. SANGUINEUS; [12]): 91.7%; Percent control R. sanguineus (R. SANGUINEUS; [13]): 91.5%; Percent control R. sanguineus (R. SANGUINEUS; [14]): 68.6%; time required to approach a 100% killing of ticks ([1]; single topical treatment): 7 days; Percent control fleas (FLEAS (Siphoneptera); [15]): 89.8%; Percent control fleas (FLEAS (Siphoneptera); [16]): 93.9%; Percent control fleas (FLEAS (Siphoneptera); [17]): 79.4%; Percent control fleas (FLEAS (Siphoneptera); [18]): 87.8%; Percent control fleas (FLEAS (Siphoneptera); [19]): 71.9%; Percent control fleas (FLEAS (Siphoneptera); [20]): 65.1%; Percent control fleas (FLEAS (Siphoneptera); [21]): 52.9%; Percent control fleas (FLEAS (Siphoneptera); [22]): 41.9%; Percent control fleas (FLEAS (Siphoneptera); [23]): 43.9%; Percent control fleas (FLEAS (Siphoneptera); [24]): 7.7%; Percent control fleas (FLEAS (Siphoneptera); Day −1 (pretreatment count)): 1.5%; killing of fleas (in words) (FLEAS (Siphoneptera); from day 1 through day 21): some killing effect on fleas
CO[C@H]1C[C@H](O[C@@H]2/C(C)=C/C[C@@H]3C[C@@H](C[C@]4(CC[C@H](C)[C@@H](C5CCCCC5)O4)O3)OC(=O)[C@@H]3C=C(C)/C(=N/O)[C@H]4OC/C(=C\C=C\[C@@H]2C)[C@]43O)O[C@@H](C)[C@@H]1O [Selamectin, selamectin] | 26.2% | 46.7% | 70.8% | 23.1% | 61.2% | 83% and 83.2% | 16.6% | 32.7% | 46.1% | 2.7% | −0.6% | 24.7% | 0.1% | −13.1% | 48.5% | 87% and 87.4% | 83.9% | 83.6% | 95.6% | 21.5% | Percent control R. sanguineus (R. SANGUINEUS; [9]): 46.0%; Percent control R. sanguineus (R. SANGUINEUS; [10]): 70.9%; Percent control R. sanguineus (R. SANGUINEUS; [11]): −7.0%; Percent control R. sanguineus (R. SANGUINEUS; [12]): −2.2%; Percent control R. sanguineus (R. SANGUINEUS; [13]): 8.2%; Percent control R. sanguineus (R. SANGUINEUS; [14]): −16.0%; tick killing of R. sanguineus (in words) (R. SANGUINEUS; by day 16 post application): negligent; flea kill compared with imidacloprid or the combination (in words) (FLEAS (Siphoneptera)): not as effective as either imidacloprid or the combination of imidacloprid and permethrin; Percent control fleas (FLEAS (Siphoneptera); [15]): 87.3%; Percent control fleas (FLEAS (Siphoneptera); [16]): 100%; Percent control fleas (FLEAS (Siphoneptera); [17]): 100%; Percent control fleas (FLEAS (Siphoneptera); [18]): 100%; Percent control fleas (FLEAS (Siphoneptera); [19]): 99.7%; Percent control fleas (FLEAS (Siphoneptera); [20]): 100%; Percent control fleas (FLEAS (Siphoneptera); [21]): 99.8%; Percent control fleas (FLEAS (Siphoneptera); [22]): 100%; Percent control fleas (FLEAS (Siphoneptera); [23]): 86%; Percent control fleas (FLEAS (Siphoneptera); [24]): 98%; Percent control fleas (FLEAS (Siphoneptera); Day −1 (pretreatment count)): 15.1%; time required to demonstrate a significant killing of fleas (FLEAS (Siphoneptera); single topical treatment): 3 days
